Converted amounts (≈) assume the structure as drawn. The source made the active and inactive calls. The calls are words filed in the database; no cut-off is given here.
system: Plasmodium falciparum; assay: Antimalarial activity against blood stage Plasmodium falciparum 3D7 assessed as reduction in parasite growth incubated for 72 hrs by SYBR Green dye based fluorescence assay; format: functional, organism-based; conditions: not given

In the case of `COc1cc2nccc(Oc3ccc(NC(=O)Nc4ccc(F)cc4F)c(F)c3)c2cc1OC`, the Activity is reported as “inactive”.
With `COc1cc2nccc(Oc3ccc(NC(=O)Nc4ccc(C(=O)N5CCN(C)CC5)c(C(F)(F)F)c4)c(F)c3)c2cc1OC` the Activity was “inactive”.
For `COc1cc2nccc(Oc3ccc(NC(=O)Nc4cc(C(F)(F)F)ccc4F)c(F)c3)c2cc1OC`, the Activity was “inactive”.
For `COc1cc2nccc(Oc3ccc(NC(=O)Nc4ccc(C(=O)N5CCN(C)CC5)cc4)c(F)c3)c2cc1OC`, the Activity was “inactive”.
In the case of `COc1cc2nccc(Oc3ccc(NC(=O)Nc4cccc(CN5CCN(C)CC5)c4)c(F)c3)c2cc1OC`, the Activity is reported as “inactive”.
For `COc1cc2nccc(Oc3ccc(NC(=O)Nc4cccc(C#N)c4)c(F)c3)c2cc1OC`, the Activity was “inactive”.
For `COc1cc2nccc(Oc3ccc(NC(=O)Nc4ccc(CN5CCOCC5)cc4)c(F)c3)c2cc1OC`, the Activity was “inactive”.
With `COc1cccc(NC(=O)Nc2ccc(Oc3ccnc4cc(OC)c(OC)cc34)cc2F)c1` the Activity was “inactive”.
With `COc1cc2nccc(Oc3ccc(NC(=O)Nc4cc(C(=O)N5CCN(C)CC5)cc(C(F)(F)F)c4)c(F)c3)c2cc1OC` the Activity was “inactive”.
In the case of `COc1cc2nccc(Oc3ccc(NC(=O)Nc4cccc(C(C)C)c4)c(F)c3)c2cc1OC`, the Activity is reported as “inactive”.
For `COc1cc2nccc(Oc3ccc(NC(=O)Nc4cccc(OC(C)C)c4)c(F)c3)c2cc1OC`, the Activity was “inactive”.
For `COc1cc2nccc(Oc3ccc(NC(=O)Nc4cccc(C(=O)N5CCN(C)CC5)c4)c(F)c3)c2cc1OC`, the Activity was “inactive”.
In the case of `COc1cc2nccc(Oc3ccc(NC(=O)Nc4cccc(Br)c4)c(F)c3)c2cc1OC`, the Activity is reported as “inactive”.
In the case of `COc1cc2nccc(Oc3ccc(NC(=O)Nc4cccc(OC(F)F)c4)c(F)c3)c2cc1OC`, the Activity is reported as “inactive”.

same assay, conditions: 3D7, 72 h

`CN1CCN(C(=O)c2cccc(NC(=O)Nc3ccc(N(C)c4ccnc(Nc5ccc(CS(C)(=O)=O)cc5)n4)cc3)c2)CC1` and `COc1cc2nccc(Oc3ccc(NC(=O)Nc4ccc(CN5CCN(C)CC5)cc4)c(F)c3)c2cc1OC` are within 1.5-fold of each other in EC50: 390 nM for the first, 580 nM for the second.

Going from `CCN(CC)CCCC(C)Nc1c2ccc(Cl)cc2nc2ccc(OC)cc12` (configuration not stated) [QUINACRINE] to `CCN(CC)Cc1ccc(NC(=O)Nc2ccc(Oc3ccnc4cc(OC)c(OC)cc34)cc2F)cc1`, the EC50 rises from 33 nM to 320 nM (9.7-fold). The first is the more potent here.

Compared with `C[C@H]1[C@@H](O)O[C@@H]2O[C@@]3(C)CC[C@H]4[C@H](C)CC[C@@H]1[C@@]24OO3` [ARTENIMOL], `COc1cc2nccc(Oc3ccc(NC(=O)Nc4ccc(N(C)C5CCN(C)CC5)c(C(F)(F)F)c4)c(F)c3)c2cc1OC` is 1100-fold higher in EC50: 0.14 nM for the first, 150 nM for the second. The first is the more potent here.

`COc1cc2nccc(Oc3ccc(NC(=O)Nc4cccc(OC(F)(F)F)c4)c(F)c3)c2cc1OC` and `COc1cc2nccc(Oc3ccc(NC(=O)Nc4cccc(C(F)(F)F)c4)c(F)c3)c2cc1OC` are within 1.5-fold of each other in EC50: 800 nM for the first, 540 nM for the second.

`COc1cc2nccc(Oc3ccc(NC(=O)Nc4ccc(CN5CCCC5)cc4)c(F)c3)c2cc1OC` and `COc1cc2nccc(Oc3ccc(NC(=O)Nc4ccc(CN5CCCCC5)cc4)c(F)c3)c2cc1OC` are within 1.5-fold of each other in EC50: 270 nM for the first, 250 nM for the second.

`COc1cc2nccc(Oc3ccc(NC(=O)Nc4ccc(CN5CCCCC5)c(OC(F)(F)F)c4)c(F)c3)c2cc1OC` and `COc1cc2nccc(Oc3ccc(NC(=O)Nc4ccc(CN5CCCC5)c(OC(F)(F)F)c4)c(F)c3)c2cc1OC` are within 1.5-fold of each other in EC50: 310 nM for the first, 230 nM for the second.

Going from `COc1cc2nccc(Oc3ccc(NC(=O)Nc4ccc(N(C)C5CCN(C)CC5)c(OC(F)(F)F)c4)c(F)c3)c2cc1OC` to `COc1cc2nccc(Oc3ccc(NC(=O)Nc4ccc(OC5CCN(C)CC5)c(OC(F)(F)F)c4)c(F)c3)c2cc1OC`, the EC50 falls from 250 nM to 75 nM (3.3-fold). The second is the more potent here.

First: COc1cc2nccc(Oc3cc(C(=O)Nc4ccc(CN5CCN(C)CC5)c(C(F)(F)F)c4)ccc3C)c2cc1OC
Second: COc1cc2nccc(Oc3ccc(NC(=O)Nc4ccc(CN5CCN(C)CC5)c(C(F)(F)F)c4)c(F)c3)c2cc1OC
The EC50 of the first is 3.7-fold higher: 410 nM for the first, 110 nM for the second. The second is the more potent here.

`COc1cc2nccc(Oc3ccc(NC(=O)Nc4cccc(C(C)(C)C)c4)c(F)c3)c2cc1OC` and `COc1cc2nccc(Oc3ccc(NC(=O)Nc4cccc(C)c4)c(F)c3)c2cc1OC` are within 1.5-fold of each other in EC50: 2520 nM for the first, 3010 nM for the second.

Going from `Nc1ncnc2occ(-c3ccc(NC(=O)Nc4cc(C(F)(F)F)ccc4F)cc3)c12` [GW770249X] to `CCN(CC)Cc1ccc(NC(=O)Nc2ccc(Oc3ccnc4cc(OC)c(OC)cc34)cc2F)cc1C(F)(F)F`, the EC50 falls from 500 nM to 300 nM (1.7-fold). The second is the more potent here.

First: COc1cc2nccc(Oc3ccc(NC(=O)Nc4ccc(N(C)C5CCN(C)CC5)cc4)c(F)c3)c2cc1OC
Second: COc1cc2nccc(Oc3ccc(NC(=O)Nc4ccc(NC5CCN(C)CC5)cc4)c(F)c3)c2cc1OC
The EC50 of the first is 2-fold lower: 330 nM for the first, 660 nM for the second.

`COc1cc2nccc(Oc3ccc(NC(=O)Nc4ccc(CN5CCCC5)c(C(F)(F)F)c4)c(F)c3)c2cc1OC` and `COc1cc2nccc(Oc3ccc(NC(=O)Nc4ccc(CN5CCCCC5)c(C(F)(F)F)c4)c(F)c3)c2cc1OC` are within 1.5-fold of each other in EC50: 330 nM for the first, 490 nM for the second.

Going from `COc1cc2nccc(Oc3ccc(NC(=O)Nc4ccc(N5CCN(C)CC5)cc4)c(F)c3)c2cc1OC` to `COc1cc2nccc(Oc3ccc(NC(=O)Nc4ccc(OC5CCN(C)CC5)cc4)c(F)c3)c2cc1OC`, the EC50 falls from 630 nM to 330 nM (1.9-fold). The second is the more potent here.

Going from `CCc1nc(N)nc(N)c1-c1ccc(Cl)cc1` [PYRIMETHAMINE] to `COc1cc2nccc(Oc3ccc(NC(=O)Nc4cccc(Cl)c4)c(F)c3)c2cc1OC`, the EC50 rises from 27 nM to 2190 nM (81-fold).

`COc1cc2nccc(Oc3ccc(NC(=O)Nc4ccc(C=C5CCNCC5)c(OC(F)(F)F)c4)c(F)c3)c2cc1OC` and `COc1cc2nccc(Oc3ccc(NC(=O)Nc4ccc(C=C5CCNCC5)c(C(F)(F)F)c4)c(F)c3)c2cc1OC` are within 1.5-fold of each other in EC50: 84 nM for the first, 83 nM for the second.

Going from `COc1cc2nccc(Oc3ccc(NC(=O)Nc4cc(CN5CCN(C)CC5)cc(C(F)(F)F)c4)c(F)c3)c2cc1OC` to `COc1cc2nccc(Oc3ccc(NC(=O)Nc4ccc(CC5CCNCC5)c(OC(F)(F)F)c4)c(F)c3)c2cc1OC`, the EC50 falls from 410 nM to 82 nM (5-fold). The second is the more potent here.

With `CCN(CC)Cc1ccc(NC(=O)Nc2ccc(Oc3ccnc4cc(OC)c(OC)cc34)cc2F)cc1OC(F)(F)F` the EC50 was 270 nM.

molecular target: T1, Cdk-related protein kinase 6 (Plasmodium falciparum) (UniProt O77239); assay: Inhibition of plasmodium falciparum PK6 assessed as remaining activity at 1 uM incubated for 2 hrs by luciferin-based luminescence assay relative to control; conditions: not given
T1 sequence (whole entry): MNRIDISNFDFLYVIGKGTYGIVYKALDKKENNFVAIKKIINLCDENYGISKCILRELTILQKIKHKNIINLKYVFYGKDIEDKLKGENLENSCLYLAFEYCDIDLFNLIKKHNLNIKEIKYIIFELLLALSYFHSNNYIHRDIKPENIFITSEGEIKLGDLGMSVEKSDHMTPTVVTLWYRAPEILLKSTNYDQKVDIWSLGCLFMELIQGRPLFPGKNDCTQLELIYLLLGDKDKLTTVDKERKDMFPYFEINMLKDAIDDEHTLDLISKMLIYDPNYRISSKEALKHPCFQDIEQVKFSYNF

First: COc1cc2nccc(Oc3ccc(NC(=O)Nc4ccc(F)cc4)c(F)c3)c2cc1OC
Second: COc1cc2nccc(Oc3ccc(NC(=O)Nc4ccc(F)cc4F)cc3)c2cc1OC
The Activity of the first is lower: 1% for the first, 6% for the second.

First: O=C(Nc1ccc(F)cc1F)Nc1ccc(Oc2ccncc2)cc1F
Second: O=C(Nc1ccc(F)cc1F)Nc1ccc(Oc2ccnc(Cl)c2)cc1F
The Activity of the first is lower: 50% for the first, 92% for the second.

Going from `O=C(Nc1ccc(F)cc1F)Nc1ccc(Oc2ncnc3sccc23)cc1F` to `O=C(Nc1ccc(F)cc1F)Nc1ccc(Oc2ncnc3ccsc23)cc1F`, the Activity falls from 80% to 61%.

Compared with `COCCOc1cc2nccc(Oc3ccc(NC(=O)Nc4ccc(F)cc4F)c(F)c3)c2cc1OCCOC`, `COc1ccc2nccc(Oc3ccc(NC(=O)Nc4ccc(F)cc4F)c(F)c3)c2c1` is higher in Activity: 2% for the first, 24% for the second.

Going from `O=C(Nc1ccc(F)cc1F)Nc1ccc(Oc2ccnc3[nH]ccc23)cc1F` to `O=C(Nc1ccc(F)cc1F)Nc1ccc(Oc2ncnc3[nH]ccc23)cc1F`, the Activity rises from 14% to 54%.

First: O=C(Nc1ccc(F)cc1F)Nc1ccc(Oc2ncnc3ccccc23)cc1F
Second: O=C(Nc1ccc(F)cc1F)Nc1ccc(Oc2ccnc3ccccc23)cc1F
The Activity of the first is higher: 83% for the first, 40% for the second.

First: O=C(Nc1ccc(F)cc1F)Nc1ccc(Oc2ccncn2)cc1F
Second: O=C(Nc1ccc(F)cc1F)Nc1ccc(Oc2ccnc(Cl)n2)cc1F
The Activity of the first is lower: 84% for the first, 98% for the second.

Going from `COc1cc2ncnc(Oc3ccc(NC(=O)Nc4ccc(F)cc4F)c(F)c3)c2cc1OC` to `COc1cc2nccc(Oc3ccc(NC(=O)Nc4ccccc4F)c(F)c3)c2cc1OC`, the Activity falls from 6% to 1%.

Going from `N#Cc1cnc2ccccc2c1Oc1ccc(NC(=O)Nc2ccc(F)cc2F)c(F)c1` to `O=C(Nc1ccc(F)cc1F)Nc1ccc(Oc2cnnc3ccccc23)cc1F`, the Activity rises from 86% to 100%.

Compared with `O=C(Nc1ccc(F)cc1F)Nc1ccc(Oc2ccnc3cc4c(cc23)OCO4)cc1F`, `O=C(Nc1ccc(F)cc1F)Nc1ccc(Oc2ccnc3cc4c(cc23)OCCO4)cc1F` is higher in Activity: 28% for the first, 30% for the second.

First: O=C(Nc1ccc(F)cc1F)Nc1ccc(Oc2ccnc3cc(Cl)ccc23)cc1F
Second: COc1ccc2c(Oc3ccc(NC(=O)Nc4ccc(F)cc4F)c(F)c3)ccnc2c1
The Activity of the first is higher: 38% for the first, 11% for the second.

`O=C(Nc1ccc(O)cc1F)Nc1ccc(F)cc1F` and `COc1ccc(NC(=O)Nc2ccc(F)cc2F)c(F)c1` are the same in Activity: 100% for the first, 100% for the second.

Compared with `COc1cc2nccc(Oc3ccc(N)cc3)c2cc1OC`, `COc1cc2nccc(Oc3ccc(N)c(F)c3)c2cc1OC` is higher in Activity: 95% for the first, 100% for the second.

Going from `O=C(Nc1ccc(F)cc1F)Nc1ccc(Oc2ccnc3ccsc23)cc1F` to `O=C(Nc1ccc(F)cc1F)Nc1ccc(Oc2ccnc3sccc23)cc1F`, the Activity rises from 34% to 43%.

Going from `COc1cc2nccc(Oc3ccc(NC(=O)Nc4ccccc4)c(F)c3)c2cc1OC` to `COc1cc2nccc(Oc3ccc(NC(=O)Nc4ccccc4)cc3)c2cc1OC`, the Activity rises from 1% to 4%.

First: COc1cc2nccc(Oc3cccc(F)c3)c2cc1OC
Second: COc1cc2nccc(Oc3ccc(NC(C)=O)c(F)c3)c2cc1OC
The Activity of the first is higher: 84% for the first, 26% for the second.

Going from `O=C(Nc1ccc(F)cc1F)Nc1ccc(Oc2cc(Cl)ncn2)cc1F` to `O=C(Nc1ccc(F)cc1F)Nc1ccc(Oc2cc(NCc3ccccc3)ncn2)cc1F`, the Activity falls from 96% to 60%.

Compound `COc1cc2nccc(Oc3ccc(NC(N)=O)c(F)c3)c2cc1OC` has an Activity of 28%.

system: HepG2; assay: Cytotoxicity against human HepG2 cells assessed as reduction in cell viability by CellTiter-Glo assay; format: toxicity, cell-based; conditions: not given

For `COc1cc2nccc(Oc3ccc(NC(=O)Nc4ccc(CN5CCN(C)CC5)c(C(F)(F)F)c4)c(F)c3)c2cc1OC`, the CC50 was 1000 nM.

molecular target: Calcium-dependent protein kinase 1 (Plasmodium falciparum) (UniProt P62344); assay: Inhibition of plasmodium falciparum CDPK1 assessed as remaining activity at 1 uM by Kinomescan method relative to control; conditions: time 2.0 hrs
Sequence (P62344 2-524 limits assumed): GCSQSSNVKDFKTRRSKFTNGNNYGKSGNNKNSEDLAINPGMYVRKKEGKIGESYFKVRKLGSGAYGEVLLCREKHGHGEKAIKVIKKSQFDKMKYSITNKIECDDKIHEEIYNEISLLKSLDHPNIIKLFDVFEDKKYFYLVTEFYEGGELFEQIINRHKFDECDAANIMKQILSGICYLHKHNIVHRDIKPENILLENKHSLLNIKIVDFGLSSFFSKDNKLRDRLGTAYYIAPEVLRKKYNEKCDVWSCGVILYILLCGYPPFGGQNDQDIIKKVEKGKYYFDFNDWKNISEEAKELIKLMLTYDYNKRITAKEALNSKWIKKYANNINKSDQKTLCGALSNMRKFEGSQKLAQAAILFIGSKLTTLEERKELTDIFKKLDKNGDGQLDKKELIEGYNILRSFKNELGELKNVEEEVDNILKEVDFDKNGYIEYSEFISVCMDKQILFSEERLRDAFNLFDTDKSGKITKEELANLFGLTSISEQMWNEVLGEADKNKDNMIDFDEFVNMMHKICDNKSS

For `COc1cc2nccc(Oc3ccc(NC(=O)Nc4ccc(CN5CCN(C)CC5)c(C(F)(F)F)c4)c(F)c3)c2cc1OC`, the Activity was 1.6%.

system: not listed separately; assay: Kinetic solubility of the compound at pH 7.4; format: physicochemical; conditions: buffer, read-out: Kinetic_solubility

Compared with `COc1cc2nccc(Oc3ccc(NC(=O)Nc4ccc(F)cc4F)c(F)c3)c2cc1OC`, `COc1cc2nccc(Oc3ccc(NC(=O)Nc4ccc(CN5CCN(C)CC5)c(C(F)(F)F)c4)c(F)c3)c2cc1OC` is 3-fold higher in solubility kinetic: 0.7 µM (≈ 0.329 µg/mL) for the first, 2.1 µM (≈ 1.29 µg/mL) for the second.

system: not listed separately; assay: Apparent permeability of compound by PAMPA assay; format: ADME; conditions: not given

With `COc1cc2nccc(Oc3ccc(NC(=O)Nc4ccc(CN5CCN(C)CC5)c(C(F)(F)F)c4)c(F)c3)c2cc1OC` the Papp was 2.57 10^-6 cm/s.

— ChEMBL document CHEMBL5346901, “Discovery of potent Plasmodium falciparum protein kinase 6 (PfPK6) inhibitors with a type II inhibitor pharmacophore” (Eur J Med Chem, 2023)
